# Reference: patent publication US5965088A, “Method for providing rapid disinfection of contact lenses” (priority 1997, dated 1999)
# Read-outs that look alike come from different tables or passages of the source.
# System: Serratia marcescens (ATCC 13880)
# Assay: Antimicrobial efficacy (stand-alone log reduction), S. marcescens
# Assay type: cell-based
# Details: for log reduction at 4 ppm / log reduction at 5 ppm / log reduction at 1 ppm / log reduction at 2 ppm / log reduction at 3 ppm / log reduction at 4 µg/mL: Serratia marcescens; for log reduction at 4 µg/mL: 4.0 ppm alexidine in ReNu MPS; for Log Reduction S. marcescens: PAPB 0.0
# Description: This Example illustrates the microbiocidal efficacy of solutions according to the present invention. The antimicrobial efficacy of each of various compositions for the chemical disinfection of contact lenses was evaluated. Microbial challenge inoculums were prepared using Pseudomonas aeruginosa (ATCC 9027), Staphylococcus aureus (ATCC 6538), Serratia marcescens (ATCC 13880), Candida albicans (ATCC 10231), and Fusarium solani (ATCC 36031). The test organisms were cultured on appropriate agar and the cultures were harvested using sterile DPBST (Dulbecco's Phosphate Buffered Saline plus 0.05% w/v polysorbate 80) or a suitable diluent and transferred to a suitable vessel. Spore suspensions were filtered through sterile glass wool to remove hyphal fragments. Serratia marcescens, as appropriate, was filtered (eg., through a 1.2 μ filter) to clarify the suspension. After harvesting, the suspension was centrifuged at no more than 5000× g for a maximum of 30 minutes at 20-25° C. The supernatant was poured off and resuspended in DPBST or other suitable diluent. The suspension was centrifuged a second time, and resuspended in DPBST or other suitable diluent. All challenge bacterial and fungal cell suspensions were adjusted with DPBST or other suitable diluent to 1×10^7 -10^8 cfu/mL. The appropriate cell concentration may be estimated by measuring the turbidity of the suspension, for example using a spectrophotometer at a preselected wavelength, for example 490 nm. One tube was prepared containing a minimum of 10 mL of test solution per challenge organism. Each tube of the solution to be tested was inoculated with a suspension of the test organism sufficient to provide a final count of 1.0×10^5 -10^6 cfu/mL, the volume of the inoculum not exceeding 1% of the sample volume. Dispersion of the inoculum was ensured by vortexing the sample for at least 15 seconds. The inoculated product was stored at 10-25° C. Aliquots in the amount of 1.0 mL were taken of the inoculated product for determination of viable counts after certain time periods of disinfection. The time points for the bacteria were 25, 50, 75, and 100% of the minimum disinfection time. Yeast and mold were tested at an additional timepoint of at least 400% of the minimum disinfection time. The suspension was mixed well by vortexing vigorously for at least 5 second. The 1.0 mL aliquots removed at the specified time intervals were subjected to a suitable series of decimal dilutions in validated neutralizing media. The suspensions were mixed vigorously and incubated for a suitable period of time to allow for neutralization of the microbial agent. The viable count of organisms was determined in appropriate dilutions by preparation of triplicate plates of trypticase soy (TSA) agar for bacteria and Sabouraud dextrose agar (SDA) for mold and yeast. The bacterial recovery plates were incubated at 30-35° C. for 2-4 days. The yeast was incubated at 20-30° C. for 2-4 days and mold recovery plates at 20-25° C. for 3-7 days. The average number of colony forming units was determined on countable plates. Countable plates refer to 30-300 cfu/plates for bacteria and yeast, and 8 to 80 cfu/plate for mold except when colonies are observed only for the 10^0 or 10^-1 dilution plates. The microbial reduction was then calculated at the specified time points. […] Following inoculation in a validated neutralizing broth and incubation for an appropriate period of time, the inoculum control must be between 1.0×10^5 -1.0×10^6 cfu/mL
# The solutions were evaluated based on the performance requirement referred to as the "Stand-Alone Procedure for Disinfecting Products" (hereafter the "stand-alone test") and is based on the Disinfection Efficacy Testing for contact lens care products under the Draft Premarket Notification (510(k)) Guidance Document For Contact Lens Care Products dated Apr. 1, 1996, prepared by the U.S. Food and Drug Administration, Division of Ophthalmic Devices. […]
structure (smiles),measurement,setting,value
"CCCCC(CC)CNC(=N)NC(=N)NCCCCCCNC(=N)NC(=N)NCC(CC)CCCC.Cl.Cl (stereo not drawn) [Alexidine.2HCl, 1,1 '-hexamethylenebis(5-(2-ethylhexyl)-biguanide) dihydrochloride]",log reduction at 4 ppm,"ATCC13880, 5 min, 4.0 ppm, aged 18 months, Exp. 2, 5.0 min, read-out: Log Reduction",2
same,log reduction at 4 ppm,"ATCC13880, 5 min, 4.0 ppm, aged 18 months, Exp. 3, 5.0 min, read-out: Log Reduction",2
same,log reduction at 4 ppm,"ATCC13880, 5 min, 4.0 ppm, read-out: Log Reduction at 5 Minutes",2
same,log reduction at 5 ppm,"ATCC13880, 5 min, 5.0 ppm, read-out: Log Reduction at 5 Minutes",2.9
same,log reduction at 4 ppm,"ATCC13880, 0.125 h, 4.0 ppm, aged 18 months, Exp. 1, 7.5 min, read-out: Log Reduction",0.9
same,log reduction at 4 ppm,"ATCC13880, 0.125 h, 4.0 ppm, aged 18 months, Exp. 2, 7.5 min, read-out: Log Reduction",2.8
same,log reduction at 4 ppm,"ATCC13880, 0.125 h, 4.0 ppm, aged 18 months, Exp. 3, 7.5 min, read-out: Log Reduction",2.2
same,log reduction at 4 ppm,"ATCC13880, 10 min",1.2
same,log reduction at 1 ppm,"ATCC13880, 10 min, 1.0 ppm, read-out: Log Reduction at 10 Minutes",0.7
same,log reduction at 2 ppm,"ATCC13880, 10 min, 2.0 ppm, read-out: Log Reduction at 10 Minutes",1.8
same,log reduction at 3 ppm,"ATCC13880, 10 min, 3.0 ppm, read-out: Log Reduction at 10 Minutes",2.6
same,log reduction at 4 ppm,"ATCC13880, 10 min, 4.0 ppm, aged 18 months, Exp. 2, 10.0 min, read-out: Log Reduction",2.8
same,log reduction at 4 ppm,"ATCC13880, 10 min, 4.0 ppm, aged 18 months, Exp. 3, 10.0 min, read-out: Log Reduction",2.2
same,log reduction at 4 ppm,"ATCC13880, 10 min, 4.0 ppm, read-out: Log Reduction at 10 Minutes",> 4.8
same,log reduction at 5 ppm,"ATCC13880, 10 min, 5.0 ppm, read-out: Log Reduction at 10 Minutes",> 4.8
same,log reduction at 4 ppm,"ATCC13880, 0.25 h",3
same,log reduction at 4 ppm,"ATCC13880, 0.25 h, 4.0 ppm, Ex. 6, aged 19 months at 25 °C, 15 min, read-out: Log Reduction",3.2
same,log reduction at 4 ppm,"ATCC13880, 0.25 h, 4.0 ppm, Ex. 8, different batch aged 19 months at 25 °C, 15 min, read-out: Log Reduction",2.5
same,log reduction at 4 ppm,"ATCC13880, 0.5 h, 4.0 ppm, Ex. 6, aged 19 months at 25 °C, 30 min, read-out: Log Reduction",> 4.7
same,log reduction at 4 ppm,"ATCC13880, 0.5 h, 4.0 ppm, Ex. 7, different lot aged 18 months, 30 min, read-out: Log Reduction",4.7
same,log reduction at 4 ppm,"ATCC13880, 0.5 h, 4.0 ppm, Ex. 8, different batch aged 19 months at 25 °C, 30 min, read-out: Log Reduction",4.6
same,log reduction at 4 ppm,"ATCC13880, 0.75 h, 4.0 ppm, Ex. 6, aged 19 months at 25 °C, 45 min, read-out: Log Reduction",> 4.7
same,log reduction at 4 ppm,"ATCC13880, 0.75 h, 4.0 ppm, Ex. 7, different lot aged 18 months, 45 min, read-out: Log Reduction",> 4.8
same,log reduction at 4 ppm,"ATCC13880, 0.75 h, 4.0 ppm, Ex. 8, different batch aged 19 months at 25 °C, 45 min, read-out: Log Reduction",> 4.7
same,log reduction at 1 ppm,"ATCC13880, 1 h, 1 ppm, 1 hr, read-out: Log Reduction",3.5
same,log reduction at 2 ppm,"ATCC13880, 1 h, 2 ppm, 1 hr, read-out: Log Reduction",> 4.8
same,log reduction at 3 ppm,"ATCC13880, 1 h, 3 ppm, 1 hr, read-out: Log Reduction",> 4.8
same,log reduction at 4 µg/mL,"ATCC13880, 1 h, 1 hr",3.7
same,log reduction at 4 ppm,"ATCC13880, 1 h, 4 ppm, 1 hr, read-out: Log Reduction",> 4.8
same,log reduction at 4 ppm,"ATCC13880, 1 h, 4.0 ppm, Ex. 6, aged 19 months at 25 °C, 60 min, read-out: Log Reduction",> 4.7
same,log reduction at 4 ppm,"ATCC13880, 1 h, 4.0 ppm, Ex. 7, different lot aged 18 months, 60 min, read-out: Log Reduction",> 4.8
same,log reduction at 4 ppm,"ATCC13880, 1 h, 4.0 ppm, Ex. 8, different batch aged 19 months at 25 °C, 60 min, read-out: Log Reduction",> 4.7
same,log reduction at 5 ppm,"ATCC13880, 1 h, 5 ppm, 1 hr, read-out: Log Reduction",> 4.8
same,log reduction at 4 µg/mL,"ATCC13880, 2 h, 2 hr",> 4.7
same,log reduction at 4 µg/mL,"ATCC13880, 3 h, 3 hr",> 4.7
same,log reduction at 4 µg/mL,"ATCC13880, 4 h, 4 hr",> 4.7
same,Log Reduction S. marcescens,"alexidine 0.5 ppm, 15 min",0.6 log
same,Log Reduction S. marcescens,"alexidine 0.5 ppm, 30 min",1.6 log
same,Log Reduction S. marcescens,"alexidine 0.5 ppm, 60 min",2.5 log
same,Log Reduction S. marcescens,"alexidine 2.6 ppm, 15 min",2.2 log
same,Log Reduction S. marcescens,"alexidine 2.6 ppm, 30 min",> 4.3 log
same,Log Reduction S. marcescens,"alexidine 2.6 ppm, 60 min",> 4.3 log
